Measured values: the NIST ThermoML archive (doi:10.1007/s10765-009-0602-6)

Test: molar heat capacity at constant volume; xn = mol fraction of the nth substance listed
Settings: x1 = 0.2607

N [ammonia] + O
Settings | molar heat capacity at constant volume [J/K/mol]
597.59 K, Fluid (supercritical or subcritical phases), Mass density=342.18 kg/m3, isochoric heat capacity | 106.69
597.6 K, Fluid (supercritical or subcritical phases), Mass density=160.07 kg/m3, isochoric heat capacity | 66.86
597.67 K, Fluid (supercritical or subcritical phases), Mass density=342.18 kg/m3, isochoric heat capacity | 101.08
597.68 K, Fluid (supercritical or subcritical phases), Mass density=376.89 kg/m3, isochoric heat capacity | 88.28
597.69 K, Fluid (supercritical or subcritical phases), Mass density=160.07 kg/m3, isochoric heat capacity | 65.49
597.76 K, Fluid (supercritical or subcritical phases), Mass density=342.18 kg/m3, isochoric heat capacity | 93.62
597.85 K, Fluid (supercritical or subcritical phases), Mass density=342.18 kg/m3, isochoric heat capacity | 99.13
597.93 K, Fluid (supercritical or subcritical phases), Mass density=342.18 kg/m3, isochoric heat capacity | 94.33
597.93 K, Fluid (supercritical or subcritical phases), Mass density=376.89 kg/m3, isochoric heat capacity | 82.42
598.02 K, Fluid (supercritical or subcritical phases), Mass density=342.18 kg/m3, isochoric heat capacity | 93.02
598.28 K, Fluid (supercritical or subcritical phases), Mass density=376.89 kg/m3, isochoric heat capacity | 83.59
598.33 K, Fluid (supercritical or subcritical phases), Mass density=329 kg/m3, isochoric heat capacity | 117.38
598.33 K, Liquid, Isochoric heat capacity | 117.38
598.45 K, Fluid (supercritical or subcritical phases), Mass density=329 kg/m3, isochoric heat capacity | 113.21
598.54 K, Fluid (supercritical or subcritical phases), Mass density=329 kg/m3, isochoric heat capacity | 109.57
598.71 K, Fluid (supercritical or subcritical phases), Mass density=329 kg/m3, isochoric heat capacity | 102.77
598.96 K, Fluid (supercritical or subcritical phases), Mass density=320.33 kg/m3, isochoric heat capacity | 120.79
598.96 K, Liquid, Isochoric heat capacity | 120.79
598.97 K, Fluid (supercritical or subcritical phases), Mass density=376.89 kg/m3, isochoric heat capacity | 81.57
598.98 K, Fluid (supercritical or subcritical phases), Mass density=160.07 kg/m3, isochoric heat capacity | 58.27
599.05 K, Fluid (supercritical or subcritical phases), Mass density=320.33 kg/m3, isochoric heat capacity | 119.07
599.05 K, Fluid (supercritical or subcritical phases), Mass density=329 kg/m3, isochoric heat capacity | 107.4
599.12 K, Fluid (supercritical or subcritical phases), Mass density=160.07 kg/m3, isochoric heat capacity | 56.88
599.14 K, Fluid (supercritical or subcritical phases), Mass density=320.33 kg/m3, isochoric heat capacity | 116.6
599.22 K, Fluid (supercritical or subcritical phases), Mass density=320.33 kg/m3, isochoric heat capacity | 116.48
599.22 K, Fluid (supercritical or subcritical phases), Mass density=329 kg/m3, isochoric heat capacity | 100.28
599.24 K, Fluid (supercritical or subcritical phases), Mass density=160.07 kg/m3, isochoric heat capacity | 59.53
599.28 K, Fluid (supercritical or subcritical phases), Mass density=160.07 kg/m3, isochoric heat capacity | 57.43
599.31 K, Fluid (supercritical or subcritical phases), Mass density=320.33 kg/m3, isochoric heat capacity | 114.22
599.31 K, Fluid (supercritical or subcritical phases), Mass density=329 kg/m3, isochoric heat capacity | 97.19
599.31 K, Fluid (supercritical or subcritical phases), Mass density=456.58 kg/m3, isochoric heat capacity | 67.32
599.39 K, Fluid (supercritical or subcritical phases), Mass density=320.33 kg/m3, isochoric heat capacity | 116.94
599.42 K, Fluid (supercritical or subcritical phases), Mass density=312.91 kg/m3, isochoric heat capacity | 124.13
599.42 K, Liquid, Isochoric heat capacity | 124.13
599.48 K, Fluid (supercritical or subcritical phases), Mass density=312.91 kg/m3, isochoric heat capacity | 116.5
599.48 K, Fluid (supercritical or subcritical phases), Mass density=456.58 kg/m3, isochoric heat capacity | 66.88
599.57 K, Fluid (supercritical or subcritical phases), Mass density=311.19 kg/m3, isochoric heat capacity | 125.38
599.57 K, Fluid (supercritical or subcritical phases), Mass density=312.91 kg/m3, isochoric heat capacity | 107.92
599.57 K, Liquid, Isochoric heat capacity | 125.38
599.63 K, Fluid (supercritical or subcritical phases), Mass density=311.19 kg/m3, isochoric heat capacity | 116.92
599.65 K, Fluid (supercritical or subcritical phases), Mass density=312.91 kg/m3, isochoric heat capacity | 98.79
599.65 K, Fluid (supercritical or subcritical phases), Mass density=456.58 kg/m3, isochoric heat capacity | 66.45
599.67 K, Fluid (supercritical or subcritical phases), Mass density=309.95 kg/m3, isochoric heat capacity | 126.26
599.67 K, Liquid, Isochoric heat capacity | 126.26
599.74 K, Fluid (supercritical or subcritical phases), Mass density=309.95 kg/m3, isochoric heat capacity | 122.91
599.74 K, Fluid (supercritical or subcritical phases), Mass density=311.19 kg/m3, isochoric heat capacity | 119.75
599.74 K, Fluid (supercritical or subcritical phases), Mass density=312.91 kg/m3, isochoric heat capacity | 95.52
599.78 K, Fluid (supercritical or subcritical phases), Mass density=308.35 kg/m3, isochoric heat capacity | 124.13
599.78 K, Fluid (supercritical or subcritical phases), Mass density=309.95 kg/m3, isochoric heat capacity | 120.4
599.78 K, Liquid, Isochoric heat capacity | 124.13
599.82 K, Fluid (supercritical or subcritical phases), Mass density=309.95 kg/m3, isochoric heat capacity | 110.51
599.82 K, Fluid (supercritical or subcritical phases), Mass density=311.19 kg/m3, isochoric heat capacity | 114.13
599.82 K, Fluid (supercritical or subcritical phases), Mass density=456.58 kg/m3, isochoric heat capacity | 66.86
599.89 K, Fluid (supercritical or subcritical phases), Mass density=307.35 kg/m3, isochoric heat capacity | 121.11
599.89 K, Liquid, Isochoric heat capacity | 121.11
599.91 K, Fluid (supercritical or subcritical phases), Mass density=308.35 kg/m3, isochoric heat capacity | 117.6
599.91 K, Fluid (supercritical or subcritical phases), Mass density=309.95 kg/m3, isochoric heat capacity | 104.19
599.99 K, Fluid (supercritical or subcritical phases), Mass density=307.35 kg/m3, isochoric heat capacity | 117.17
599.99 K, Fluid (supercritical or subcritical phases), Mass density=308.35 kg/m3, isochoric heat capacity | 105.88
599.99 K, Fluid (supercritical or subcritical phases), Mass density=309.95 kg/m3, isochoric heat capacity | 102.57
599.99 K, Fluid (supercritical or subcritical phases), Mass density=312.91 kg/m3, isochoric heat capacity | 91.51
600.02 K, Fluid (supercritical or subcritical phases), Mass density=305.44 kg/m3, isochoric heat capacity | 119.52
600.02 K, Liquid, Isochoric heat capacity | 119.52
600.08 K, Fluid (supercritical or subcritical phases), Mass density=305.44 kg/m3, isochoric heat capacity | 116.14
600.08 K, Fluid (supercritical or subcritical phases), Mass density=307.35 kg/m3, isochoric heat capacity | 103.34
600.08 K, Fluid (supercritical or subcritical phases), Mass density=308.35 kg/m3, isochoric heat capacity | 100.97
600.16 K, Fluid (supercritical or subcritical phases), Mass density=307.35 kg/m3, isochoric heat capacity | 101.06
600.17 K, Fluid (supercritical or subcritical phases), Mass density=303.47 kg/m3, isochoric heat capacity | 117.74
600.17 K, Fluid (supercritical or subcritical phases), Mass density=305.44 kg/m3, isochoric heat capacity | 107.85
600.17 K, Fluid (supercritical or subcritical phases), Mass density=308.35 kg/m3, isochoric heat capacity | 93.64
600.17 K, Liquid, Isochoric heat capacity | 118.63
600.25 K, Fluid (supercritical or subcritical phases), Mass density=303.47 kg/m3, isochoric heat capacity | 110.49
600.25 K, Fluid (supercritical or subcritical phases), Mass density=305.44 kg/m3, isochoric heat capacity | 102.54
600.29 K, Fluid (supercritical or subcritical phases), Mass density=301.94 kg/m3, isochoric heat capacity | 117.56
600.29 K, Liquid, Isochoric heat capacity | 117.56
600.33 K, Fluid (supercritical or subcritical phases), Mass density=301.94 kg/m3, isochoric heat capacity | 111.7
600.34 K, Fluid (supercritical or subcritical phases), Mass density=303.47 kg/m3, isochoric heat capacity | 104.01
600.34 K, Fluid (supercritical or subcritical phases), Mass density=305.44 kg/m3, isochoric heat capacity | 105.13
600.35 K, Fluid (supercritical or subcritical phases), Mass density=309.95 kg/m3, isochoric heat capacity | 100.02
600.42 K, Fluid (supercritical or subcritical phases), Mass density=303.47 kg/m3, isochoric heat capacity | 98.88
600.42 K, Fluid (supercritical or subcritical phases), Mass density=305.44 kg/m3, isochoric heat capacity | 97.9
